According to patent US6423740B1, “Chalcones having antiproliferative activity” (Indena S.p.A., priority 1997, dated 2002):

Legend:
[1] = test system: type II estrogen receptors; assay: Binding to type II estrogen receptors, displacement of 3H-estradiol in tumor cells; conditions: read-out: IC50, concentration causing 50% displacement of the estradiol labelled by its own receptor
Method: The binding to type II estrogen receptors was evaluated in ovarian tumor cells and tumor cells of other target organs. The cells were grown in a single layer according to the known techniques reported in the literature. To make the test reproducibility, the cells were trypsin treated, every week and placed on plates at a density of 8×10^4 cells/cm^2 and incubated at 37° C. in air containing 5% CO2.
(§1) The various compounds under test, dissolved in ethyl alcohol, were added at serial dilutions and the treated cells and control cells were incubated with ^3H-estradiol or in the presence of diethylstilbestrol according to the methods described by literature. The antiproliferation activity were verified in the same way by adding the compounds, dissolved in DMSO, to the medium and performing a cell count after 72 hours.

[2] = test system: MDA-MB231; assay: Antiproliferation activity in vitro, cell count after 72 hours, sensitive breast tumoral line; type: cell-based; conditions: MDA-MB-231, MDA-MB231 sensitive human breast tumoral line, read-out: IC50 (MDA-MB231), concentration causing 50% inhibition of the cell proliferation
Method: as §1

[3] = test system: MCF7 ADRr; assay: Antiproliferation activity in vitro, cell count after 72 hours, adriamycin-resistant breast tumoral line; type: cell-based; conditions: MCF7 ADRr adriamycin-resistant human breast tumoral line, read-out: IC50 (MCF7 ADRr), concentration causing 50% inhibition of the cell proliferation
Method: as §1

IC50 [1] [µM] | IC50 [2] [µM] | melting point [°C] | IC50 [3] [µM] | SMILES
1.1 | 3.2 | 99 to 100 | 2.8 | CC(C)=CCOc1ccc(C(=O)C=Cc2ccncc2)c(O)c1 [Compound I, 1-[2-Hydroxy-4-(3-methylbut-2-enyloxy)-phenyl]-3(pyridine-4-yl)-propen-1-one]
3.3 | 3.2 | 177 to 179 | 2.2 | CC(C)=CCOc1ccc(C(=O)C=Cc2cccnc2)c(O)c1 [Compound II, 1-[2-Hydroxy-4-(3-methylbut-2-enyloxy)-phenyl]-3(pyridine-3-yl)-propen-1-one]
4.2 | 8.2 |  | 7 | CC(=O)Nc1ccc(C=CC(=O)c2ccc(OCC=C(C)C)cc2O)cc1 [Compound III, 1-[2-hydroxy-4-(3-methylbut-2-enyloxy)-phenyl]-3-(4-acetamidophenyl)-propen-1-one]
1.7 | 7.5 | 85 to 87 | 9.4 | C=C(C)COc1ccc(C(=O)C=Cc2ccc(N(C)C)cc2)c(O)c1 [Compound IV, 1-[2-hydroxy-4-(2-methylallyloxy)-phenyl]-3-(4-dimethylaminophenyl)-propen-1-one]
3.1 | 5 | 97 to 100 | 8.9 | C=C(C)COc1ccc(C(=O)C=Cc2cccc(OC)c2)c(O)c1 [Compound IX, 1-[2-hydroxy-4-(2-methylallyloxy)-phenyl]-3-(3-methoxyphenyl)-propen-1-one]
2.8 | 11 |  | 6.8 | CC(C)=CCOc1ccc(C(=O)C=Cc2c[nH]c3ccccc23)c(O)c1 [Compound V, 1-[2-hydroxy-4-(3-methylbut-2-enyloxy)-phenyl]-3-(indole-3-yl)-propen-1-one]
3.4 | 9.6 |  | 8.8 | C=C(C)COc1ccc(C(=O)C=Cc2c[nH]c3ccccc23)c(O)c1 [Compound VI, 1-[2-Hydroxy-4-(2-methylallyloxy)-phenyl]-3-(indole-3-yl)-propen-1-one]
5.2 | 7.1 |  | 9.4 | C#CCOc1ccc(C(=O)C=Cc2c[nH]c3ccccc23)c(O)c1 [Compound VII, 1-[2-hydroxy-4-(prop-2-ynyloxy)-phenyl]-3-(indole-3-yl)propen-1-one]
4 | 5.4 | 164 to 166 | 6 | C=C(C)COc1ccc(C(=O)C=Cc2cccnc2)c(O)c1 [Compound VIII, 1-[2-Hydroxy-4-(2-methylallyloxy)-phenyl]-3-(pyridine-3-yl)-propen-1-one]
2.8 | 3.7 | 115 to 117 | 3.7 | C#CCOc1ccc(C(=O)C=Cc2cccnc2)c(O)c1 [Compound X, 1-[2-hydroxy-4-(prop-2-ynyloxy)-phenyl]-3-(pyridine-3-yl)propen-1-one]
1.4 | 4.1 |  | 3.6 | CC(C)=CCOc1ccc(C(=O)C=Cc2cccs2)c(O)c1 [Compound XI, 1-(2-Hydroxy-4-(3-methylbut-2-enyloxy)-phenyl)-3-(2-thienyl)-propen-1-one]
2.7 | 5.3 |  | 3.9 | C=C(C)COc1ccc(C(=O)C=Cc2cccs2)c(O)c1 [Compound XII, 1-(2-Hydroxy-4-(2-methylallyloxy)-phenyl)-3-(2-thienyl)-propen-1-one]
4.3 | 4.9 |  | 5.1 | C#CCOc1ccc(C(=O)C=Cc2cccs2)c(O)c1 [Compound XIII, 1-(2-Hydroxy-4-(prop-2-ynyloxy)-phenyl)-3-(2-thienyl)-propen-1-one]
3.2 | 5.7 |  | 6.3 | CC(C)=CCOc1ccc(C(=O)C=Cc2ccco2)c(O)c1 [Compound XIV, 1-(2-Hydroxy-4-(3-methylbut-2-enyloxy)-phenyl)-3-(2-furyl)-propen-1-one]
 |  | 96 to 97 |  | CC(C)=CCOc1ccc(C(=O)C=Cc2ccc(F)cc2)c(O)c1 [Compound XIX, 1-(2-Hydroxy-4-(3-methylbut-2-enyloxy)-phenyl)-3-(4-fluorophenyl)-propen-1-one]
2.9 | 10.7 |  | 7.1 | C=C(C)COc1ccc(C(=O)C=Cc2ccccc2)c(O)c1 [Compound XV, 1-(2-Hydroxy-4-(2-methylallyloxy)-phenyl)-3-(phenyl)-propen-1-one]
4.4 | 8.9 |  | 8.4 | C#CCOc1ccc(C(=O)C=Cc2ccccc2)c(O)c1 [Compound XVI, 1-(2-Hydroxy-4-(prop-2-ynyloxy)-phenyl)-3-(phenyl)-propen-1-one]
5.5 | 4.3 | 106 to 107 | 5.6 | C=C(C)COc1ccc(C(=O)C=Cc2ccc(OC)cc2OC)c(O)c1 [Compound XVII, 1-(2-Hydroxy-4-(2-methylallyloxy)-phenyl)-3-(2,4-dimethoxyphenyl)-propen-1-one]
 |  | 121 to 122 |  | C=C(C)COc1ccc(C(=O)C=Cc2ccc(Br)cc2)c(O)c1 [Compound XVIII, 1-(2-Hydroxy-4-(2-methylallyloxy)-phenyl)-3-(4-bromophenyl)-propen-1-one]
 |  | 125 to 126 |  | CC(C)=CCOc1ccc(C(=O)C=Cc2cccc([N+](=O)[O-])c2)c(O)c1 [Compound XX, 1-(2-Hydroxy-4-(3-methylbut-2-enyloxy)-phenyl)-3-(3-nitrophenyl)-propen-1-one]
 |  | 101 to 102 |  | CC(C)=CCOc1ccc(C(=O)C=Cc2c(Cl)cccc2Cl)c(O)c1 [Compound XXI, 1-(2-Hydroxy-4-(3-methylbut-2-enyloxy)-phenyl)-3-(2,6-dichlorophenyl)-propen-1-one]
 |  | 122 to 123 |  | CC(C)=CCOc1ccc(C(=O)C=Cc2ccc(C(F)(F)F)cc2)c(O)c1 [Compound XXII, 1-(2-Hydroxy-4-(3-methylbut-2-enyloxy)-phenyl)-3-(4-trifluoromethylphenyl)-propen-1-one]
 |  | 177 to 179 |  | C#CCOc1ccc(C(=O)C=Cc2c(OC)cc(OC)cc2OC)c(O)c1 [Compound XXIII, 1-(2-Hydroxy-4-(prop-2-ynyloxy)-phenyl)-3-(2,4,6-trimethoxyphenyl)-propen-1-one]
 |  | 188 to 190 |  | C#CCOc1ccc(C(=O)C=Cc2ccc(C#N)cc2)c(O)c1 [Compound XXIV, 1-(2-Hydroxy-4-(prop-2-ynyloxy)-phenyl)-3-(4-cyanophenyl)-propen-1-one]
 |  | 108 to 109 |  | CC(C)=CCOc1ccc(C(=O)C=Cc2ccc(C)cc2)c(O)c1 [Compound XXV, 1-(2-Hydroxy-4-(3-methylbut-2-enyloxy)-phenyl)-3-(4-methylphenyl)-propen-1-one]
 |  | 130 to 131 |  | CSc1ccc(C=CC(=O)c2ccc(OCC=C(C)C)cc2O)cc1 [Compound XXVI, 1-(2-Hydroxy-4-(3-methylbut-2-enyloxy)-phenyl)-3-(4-methylthiophenyl)-propen-1-one]
